Data as given in patent US20230089267A1, “Compositions and Methods For Reducing Immune Intolerance and Treating Autoimmune Disorders” (Lapix Therapeutics, Inc., priority 2021, published 2023).

Tests used:
NMO mouse model = experiment: AQP4-p201-p220-induced neuromyelitis optica mouse model, fundoscopy; assay type: in vivo, mice; settings: number of eyes since randomization, 3 μg SC daily, 20 eyes
Method: NMO is a CNS autoimmune inflammatory demyelinating disease that causes optico-spinal disorder leading to paralysis and vision loss. NMO mouse model was established by using AQP4-p201-p220 peptide (from Genemed Synthesis Inc.). Briefly, C57BL/6 mice (n=30) were immunized on day 0 with 100 micrograms of the AQP4-p201-p220 peptide emulsified in CFA. Mice were injected subcutaneously at the tail base under anesthesia. On the day of injection (Day 0) and two days later, mice received intraperitoneal injection of pertussis toxin (PTx) in PBS at 200 ng/mouse/dose (0.1 ml).
Prior to immunizing the mice on day 0, both eyes of each of the mice were imaged by fundoscopy. Fundoscopy was employed to study (a) optic disc inflammation, and (b) retinal damage (exudates as evidence of inflammation). Mice were monitored for disease onset daily after one week of immunization (day 7) for clinical symptoms, as per the scoring system developed by Ramadan et al., Brain 2016. Mice with a score of 1.0 or any […] symptoms were immediately randomized into either group A or group B treatment regimens to receive up to 14 days of treatment. Group A (n=10) received Compound 2 3 μg SC daily, and Group B (n=8) served as a control and was treated with a placebo.
Fundoscopy was conducted on day 6 post-immunization and was later performed approximately once every four days, i.e., on days 9, 13, 16, 22, and 26. Each eye was scored for inflammation in the optic disc and retinal damage evident by the appearance of ‘exudates’ (blotchiness) in the fundus image. Eye samples were collected during the onset of disease and post-randomization after at least 9-12 days of treatment and on day 14 (end of study) to assess the histology of both the optic nerve and the retina.

[1] = test system: FoxP3+/CD4+ T-cells in splenocytes from naïve C57BL/6 mice; experiment: In vitro dose-response, percent FoxP3+/CD4+ T-cells in murine splenocytes; assay type: cell-based
Method: All animal studies were conducted under IACUC number B2020-91 and in compliance with Tufts University/Tufts Medical Center & Human Nutrition Research Center on Aging. Animals were housed four in a cage and had access to food and water ad libitum. Anti-FoxP3 and anti-CD4 for flow cytometry were obtained from eBioscience. Compounds 1-3 were formulated with 10% DMPC in PBS. PS liposomes were synthesized at a 30:70 PS:lipid molar ratio.
Splenocytes from naïve C57BL/6 mice were stained with CFSE, seeded at 2×10^5 cells/well, and dosed with each compound from 1e^−4 μM to 3.0e^−9 μM using a log 2 dilution scheme. Cells were incubated for 72 hours before phenotyping for FoxP3+/CD4+ T-cells. Flow cytometer analysis was performed to assess changes in percent FoxP3+/CD4+ T-cells as a function of compound and dose. Concentration versus response was fitted to a 4-parameter, log-logistic model using the “dre” package in “R”. Both EC50 and EC90 were obtained by model fitting.
Cells were observed via a microscope at the end of the incubation period. All cells looked healthy and suitable for flow cytometry analysis.
Table 2 summarizes EC50 and EC90 values obtained from the model fitting.

[2] = test system: MOG35-55-induced murine EAE model; experiment: Induction/maintenance treatment paradigm in MOG35-55-induced murine EAE model (Example 9); assay type: in vivo, mice
Method: Compound 2, natalizumab and DMF were prepared as described in Example 8. Table 5 (see Example 4) details the expected clinical symptoms and scoring criteria used in this study.
This study was designed to evaluate the therapeutic effects of Compound 2 versus natalizumab in a treatment induction/maintenance paradigm (induction cohort), and Compound 2 versus DMF after natalizumab (maintenance cohort). In the induction cohorts, animals were randomized 2:1:1 natalizumab:Compound 2:control when they reached a score of 2.5, as per FIG. 6A. Animals in the natalizumab cohort were given 100 μg natalizumab/mouse every 3 days for 3 doses before being randomized to the maintenance cohort. Animals randomized into the maintenance cohort after natalizumab received maintenance doses of DMF or Compound 2 (1:1 randomization), as per their group assignment for 14 days. Animals in the Compound 2 induction cohort were dosed with 30 μg Compound 2/mouse SC QD for a maximum of 7 days, or 3 consecutive days of disease score <2.5, at which time they were placed on a maintenance dose of 3 μg/mouse SC QD for 14 days. All animals in all groups were monitored for 14 days after the last dose for disease score and survival.
Disease control (induction therapy): Disease control was defined as maintaining a clinical score of 2.5 or less after randomization. Animals in the different treatment groups were monitored after the 2:1:1 randomization. Clinical scores were recorded daily for all animals and plotted over time. A score of >2.5 was recorded as an event and analyzed by survival analysis in GraphPad Prism 9. Animals not reaching a clinical score of 2.5 by the end of the induction period (day 7) were assigned a score of zero for the survival analysis.
Survival (induction therapy): Death due to disease (clinical score 5) during the treatment induction period was recorded as an event “1”, animals surviving until the end of the induction period, day 7 after randomization, were censored on day 7 for the purposes of survival analysis.
Disease control (maintenance therapy): At the end of the induction period with natalizumab, animals were randomized 1:1 to the DMF maintenance group or Compound 2 maintenance group as per FIG. 6A. Animals were dosed for 14 days, and clinical scores were monitored daily.
Survival (maintenance therapy): Death by disease (clinical score of 5) was recorded as an event “1”, death due to ulceration or ex vivo analysis was recorded as “0”. Animals surviving until the end of the study were recorded as “0” on the last day of the study. Survival analysis was done in GraphPad Prism 9.

DSS-induced IBD model = experiment: Dextran sulfate sodium (DSS)-induced IBD model; assay type: in vivo, mice; settings: 30 μg SC for 7 days then 3 μg SC for 7 days, both disease cycles
Method: IBD was induced in 6-8-week-old female C57/B6 mice by adding 3% DSS (Sigma Aldrich) in their drinking water for 3 days on 2 different occasions (days 0, 1, and 2 of the induction phase and days 11, 12, and 13 of the re-exposure phase). One group (n=5) was treated with Compound 2 (30 μg SC for 7 days) during the disease induction phase followed by a lower dose of Compound 2 (3 μg SC for 7 days) during the disease re-exposure phase. […] Mice body weight was monitored daily starting on day 0.

[3] = Mus musculus, T-cell, percent FoxP3+/CD4+ T-cells, 72 hours, 4-parameter log-logistic model fit
[4] = Compound 2 induction followed by Compound 2 maintenance

In the case of `N[C@@H](CNC(=O)Cc1ccc(OCc2cccc3ccccc23)cc1)C(=O)O` [Compound 2, (S)-2-Amino-3-(2-(4-(naphthalen-1-ylmethoxy)phenyl)acetamido)propanoic acid], the “Cleared/Clearing eyes (recovery)” value (NMO mouse model) is reported as 4, the Maintained/No change (NMO mouse model) is reported as 14 and the Worsening conditions (NMO mouse model) is reported as 0. The EC50 [1, 3] was 0.00602 nM, the EC90 [1, 3] was 0.0199 nM and the “mean FoxP3+/CD4+ T-cells, upper plateau, mean (SEM)” value ([1]; high dose, from model fitting) was 4.54 (0.14) %. The “dose-response behaviour of FoxP3+/CD4+ T-cells” value ([1]; in words) was “showed a clear plateau”, the “mean FoxP3+/CD4+ T-cells, lower plateau, mean (SEM)” value ([1]; low dose, from model fitting) was 2.20% and the “clinical score on the last day of dosing” value [2, 4] was 2.2 (SD=0.3). For the same compound, the “mean score on the first day of maintenance therapy” value [2, 4] was 2.3 (SD=0.4), the “mice showing clinical score improvement and switched to maintenance before end of induction period” value ([2]; induction period) was “at least 4 out of the 10” and the “animals that survived the treatment induction period” value ([2]; induction period, day 7 after randomization) was 9/9. The “last measured score, day 7 after initiation of maintenance” value ([2]; maintenance after natalizumab induction) was 2.5 (SD=0), the “mortality rate in maintenance cohort” value ([2]; maintenance after natalizumab induction, n=4 in each group) was 0% and the “survival in maintenance cohort” value ([2]; maintenance after natalizumab induction, to end of study) was “All animals randomized to Compound 2 maintenance after natalizumab induction survived until the end of the study”. The “mean clinical score by day 7 of induction” value ([2]; randomized at score 2.5, Compound 2 30 μg SC) was 2.25 (SD=0.26), the “animals that progressed to a clinical score >2.5 during induction” value ([2]; randomized at score 2.5, natalizumab 100 μg/mouse every 3 days, Compound 2 30 μg SC) was 0/10 and the body weight change (DSS-induced IBD model) was “less weight loss and more rapid recovery than untreated animals”.
